Measurements reported in patent publication US10246419B2, “Liver X receptor (LXR) modulators” (Ralexar Therapeutics, Inc., priority 2013, dated 2019).

Target: human LXRβ (AA 153-461) LBD (Homo sapiens (Human), UniProt P55055)
Assay: Gal4 LXRβ cotransfection assay (LXRβ Gal fusion assay)
Format: cell-based
Conditions: HEK 293 cells transiently transfected, Gal4-responsive luciferase reporter, compounds 0.01-10 μM
Method: For transient transfection of HEK 293 cells, 6×10^3 cells are plated into 96-well dishes. Each well is transfected with 25 ng 5×UAS-luciferase reporter (pG5luc) and 25 ng of pM human LXRβ (AA 153-461) LBD plasmid using Fugene 6 reagent (Roche; Indianapolis, Ind.). The chimeric protein is assessed for the ability to transactivate a Gal4-responsive luciferase reporter plasmid in a concentration-responsive manner to compounds (0.01-10 μM). Luciferase activity at each dose concentration is measured in triplicate using standard substrate reagents (BD Biosciences; San Diego, Calif.).

Chain of human LXRβ (AA 153-461) LBD (P55055 153-460 limits assumed): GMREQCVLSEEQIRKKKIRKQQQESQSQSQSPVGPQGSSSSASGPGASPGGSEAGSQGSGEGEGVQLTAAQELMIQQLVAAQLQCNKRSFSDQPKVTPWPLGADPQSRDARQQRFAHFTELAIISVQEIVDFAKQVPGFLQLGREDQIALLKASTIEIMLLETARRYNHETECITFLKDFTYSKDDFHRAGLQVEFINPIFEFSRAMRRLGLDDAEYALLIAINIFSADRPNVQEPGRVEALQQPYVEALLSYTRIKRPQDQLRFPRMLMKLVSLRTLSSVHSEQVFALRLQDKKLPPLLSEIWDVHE

SMILES | EC50 [µM]
CC(C)Cn1nc(C(F)(F)F)cc1-c1ccc(-c2cccc(S(C)(=O)=O)c2)cc1 [Compound 4, 1-isobutyl-5-(3′-(methylsulfonyl)biphenyl-4-yl)-3-(trifluoromethyl)-1H-pyrazole] | < 1
CC(C)Cn1nc(C(F)(F)F)cc1-c1ccc(-c2ccc(CO)c(S(C)(=O)=O)c2)cc1 [Compound 5, (4′-(1-isobutyl-3-(trifluoromethyl)-1H-pyrazol-5-yl)-3-(methylsulfonyl)biphenyl-4-yl)methanol] | < 1
CC(C)Cn1nc(C(=O)NCC(F)(F)F)cc1-c1ccc(-c2cccc(S(C)(=O)=O)c2)cc1 [Compound 6, 1-Isobutyl-5-(3′-(methylsulfonyl)-[1,1′-biphenyl]-4-yl)-N-(2,2,2-trifluoroethyl)-1H-pyrazole-3-carboxamide] | < 1
CC(C)Cn1nc(C(=O)NCC(F)(F)F)cc1-c1ccc(-c2ccc(CO)c(S(C)(=O)=O)c2)cc1 [Compound 7, 5-(4′-(Hydroxymethyl)-3′-(methylsulfonyl)-[1,1′-biphenyl]-4-yl)-1-isobutyl-N-(2,2,2-trifluoroethyl)-1H-pyrazole-3-carboxamide] | < 1
CC(C)Cc1nc(C(C)(C)O)cn1-c1ccc(-c2cccc(S(C)(=O)=O)c2)cc1 [Compound 8, 2-(2-isobutyl-1-(3′-(methylsulfonyl)-[1,1′-biphenyl]-4-yl)-1H-imidazol-4-yl)propan-2-ol] | 1 to 10
C=C(C)c1cc(-c2ccc(-c3cccc(S(C)(=O)=O)c3)cc2)n(CC(C)C)n1 [Compound 9, 1-isobutyl-5-(3′-(methylsulfonyl)-[1,1′-biphenyl]-4-yl)-3-(prop-1-en-2-yl)-1H-pyrazole] | 1 to 10
CC(C)Cn1nc(C(C)(C)O)cc1-c1ccc(-c2ccc(CO)c(S(C)(=O)=O)c2)cc1 [Compound 10, 2-(5-(4′-(Hydroxymethyl)-3′-(methylsulfonyl)-[1,1′-biphenyl]-4-yl)-1-isobutyl-1H-pyrazol-3-yl)propan-2-ol] | 1 to 10
CC(C)Cn1nc(C(C)(C)O)cc1-c1ccc(-c2cccc(S(C)(=O)=O)c2)cc1 [Compound 11, 2-(1-isobutyl-5-(3′-(methylsulfonyl)-[1,1′-biphenyl]-4-yl)-1H-pyrazol-3-yl)propan-2-ol] | 1 to 10
CC(C)Cn1nc(C(C)C)cc1-c1ccc(-c2cccc(S(C)(=O)=O)c2)cc1 [Compound 12, 1-isobutyl-3-isopropyl-5-(3′-(methylsulfonyl)-[1,1′-biphenyl]-4-yl)-1H-pyrazole] | 1 to 10
CS(=O)(=O)c1cccc(-c2ccc(-c3cc(C(F)(F)F)nn3CC3CC3)cc2)c1 [Compound 18, 1-(cyclopropylmethyl)-5-(3′-(methylsulfonyl)-[1,1′-biphenyl]-4-yl)-3-(trifluoromethyl)-1H-pyrazole] | < 1
CCC(C)n1nc(C(F)(F)F)cc1-c1ccc(-c2cccc(S(C)(=O)=O)c2)cc1 (stereo not shown) [Compound 19, 1-(sec-butyl)-5-(3′-(methylsulfonyl)-[1,1′-biphenyl]-4-yl)-3-(trifluoromethyl)-1H-pyrazole] | > 10
CS(=O)(=O)c1cccc(-c2ccc(-c3cc(C(F)(F)F)nn3C3CCCCC3)cc2)c1 [Compound 20, 1-cyclohexyl-5-(3′-(methylsulfonyl)-[1,1′-biphenyl]-4-yl)-3-(trifluoromethyl)-1H-pyrazole] | > 10
CS(=O)(=O)c1cccc(-c2ccc(-c3cc(C(F)(F)F)nn3CC3CCCCC3)cc2)c1 [Compound 21, 1-(cyclohexylmethyl)-5-(3′-(methylsulfonyl)-[1,1′-biphenyl]-4-yl)-3-(trifluoromethyl)-1H-pyrazole] | < 1
